Calls of active or inactive are those of the source. The rule behind the calls is not given here.
What was measured:
HGC-27 [1] = assay: Effect on cell morphology in human HGC-27 cells assessed as lose of adherence at 10 uM incubated for 48 hrs by giemsa staining based microscopic analysis; format: functional
[2] = Half in Sprague-Dawley rat at 100 mg/kg, ip and measured upto 8 hrs by LC-MS/MS analysis; format: ADME, organism-based; conditions: in vivo
HT-29 = assay: Antiproliferative activity against human HT-29 cells assessed as reduction in cell proliferation incubated for 48 hrs by MTT assay; format: functional, cell-based; conditions: HT-29, 48 h
[3] = Toxicity in BALB/c mouse xenografted with mouse CT26.WT assessed as pathological changes in kidney at 100 mg/kg, ip twice daily and measured after 14 days by hematoxylin and eosin staining based microscopic analysis; format: organism-based; conditions: in vivo, 336 h, time 14 day
HGC-27 [4] = assay: Induction of apoptosis in human HGC-27 cells assessed as increase in caspase-3 activity at 1.1 uM incubated for 36 hrs by flow cytometry (Rvb= 9.39%); format: functional
RKO [5] = assay: Induction of cell cycle arrest in human RKO cells assessed as accumulation at G2/M phase at 3.3 to 10 uM for 24 hrs by propidium iodide staining based flow cytometry; format: functional; conditions: dose 3.3-10 µM
HGC-27 [6] = assay: Effect on cell morphology in human HGC-27 cells assessed as appearance of round cells at 10 uM incubated for 48 hrs by giemsa staining based microscopic analysis; format: functional
HGC-27 [7] = assay: Induction of apoptosis in human HGC-27 cells assessed as increase in cleaved caspase-3 expression at 1.1 to 10 uM incubated for 24 hrs by western blot assay; format: functional, cell-based; conditions: dose 1.1-10 µM
RKO [8] = assay: Effect on cell morphology in human RKO cells assessed as contracted nucleus at 10 uM incubated for 48 hrs by giemsa staining based microscopic analysis; format: functional
RAW264.7 = assay: Antiinflammatory activity against LPS-stimulated mouse RAW264.7 cells assessed decrease in IL-1beta release at 1.1 uM incubated for 1 hrs followed by LPS stimulation and measured after 24 hrs by ELISA; format: functional, cell-based; conditions: time 25.0 hrs
[9] = target: Nuclear factor NF-kappa-B complex (Homo sapiens) (UniProt Q00653+P19838+Q04206); assay: Inhibition of NF-kappaB activation in human RKO cells assessed as downregulation of NF-kappaB phosphorylation at 10 uM for 48 hrs by DAPI staining based immunofluorescence assay; format: cell-based
RKO [10] = assay: Anti-migration activity against human RKO cells assessed as inhibition of cell migration at 0.37 uM and measured after 24 hrs by wound healing assay; format: functional, cell-based
RKO [11] = assay: Effect on cell morphology in human RKO cells assessed as condensed morphology at 10 uM incubated for 48 hrs by giemsa staining based microscopic analysis; format: functional
[12] = Metabolic stability in rat whole blood assessed as parent compound remaining at 23.76 to 536 ug/mL and measured upto 4 hrs by HPLC analysis; format: ADME, tissue-based; conditions: at 23.76 to 536 µg/mL, dose 23.76-536 µg/ml, read-out: Stability
HGC-27 [13] = assay: Effect on cell morphology in human HGC-27 cells assessed as appearance of smaller cells at 10 uM incubated for 48 hrs by giemsa staining based microscopic analysis; format: functional
RKO [14] = assay: Induction of apoptosis in human RKO cells assessed as increase in cytochrome C level at 1.1 to 10 uM incubated for 24 hrs by western blot assay; format: functional, cell-based; conditions: dose 1.1-10 µM
HGC-27 [15] = assay: Induction of apoptosis in human HGC-27 cells at 1.1 to 10 uM for 24 hrs by Annexin V-FITC/PI staining based flow cytometry; format: functional, cell-based; conditions: dose 1.1-10 µM
RKO [16] = assay: Effect on cell morphology in human RKO cells assessed as lose of adherence at 10 uM incubated for 48 hrs by giemsa staining based microscopic analysis; format: functional
HGC-27 [17] = assay: Induction of apoptosis in human HGC-27 cells assessed as increase in caspase-3 activity at 10 uM incubated for 36 hrs by flow cytometry (Rvb= 9.39%); format: functional
CT26.WT [18] = assay: Antiproliferative activity against mouse CT26.WT cells assessed as cell viability at 1.23 uM for 48 hrs by MTT assay; format: functional; conditions: read-out: Activity
[19] = Acute toxicity in Kunming mouse assessed as mortality at 100 mg/kg,ip and measured upto 14 days; format: organism-based; conditions: in vivo, 336 h, time < 14 day
[20] = Acute toxicity in Kunming mouse assessed as behavioral changes at 100 mg/kg,ip and measured upto 14 days; format: organism-based; conditions: in vivo, 336 h, time < 14 day
[21] = Toxicity in BALB/c mouse xenografted with mouse CT26.WT assessed as change in body weight at 100 mg/kg, ip twice daily and measured upto 14 days relative to control; format: organism-based; conditions: in vivo, 336 h, time < 14 day
RKO [22] = assay: Antiproliferative activity against human RKO cells assessed as reduction in cell proliferation incubated for 48 hrs by MTT assay; format: functional, cell-based
HGC-27 [23] = assay: Induction of apoptosis in human HGC-27 cells assessed as increase in Bax/Bcl-2 ratio expression at 1.1 to 10 uM incubated for 24 hrs by western blot assay; format: functional, cell-based; conditions: dose 1.1-10 µM
RKO [24] = assay: Induction of apoptosis in human RKO cells assessed as increase in cleaved caspase-3 expression at 1.1 to 10 uM incubated for 24 hrs by western blot assay; format: functional, cell-based; conditions: dose 1.1-10 µM
CT26.WT [25] = assay: Anti-tumor activity against mouse CT26.WT xenografted in BALB/c mouse assessed as decrease in MMP-9 expression level in tumor tissue at 100 mg/kg, ip twice daily and measured after 14 days by immunohistochemical analysis; format: functional, organism-based; conditions: time 14.0 day
HGC-27 [26] = assay: Antiproliferative activity against human HGC-27 cells assessed as reduction in cell proliferation incubated for 48 hrs by MTT assay; format: functional, cell-based; conditions: HGC-27, 48 h
RKO [27] = assay: Induction of apoptosis in human RKO cells assessed as increase in caspase-3 activity at 1.1 uM incubated for 36 hrs by flow cytometry (Rvb= 1.08%); format: functional
RKO [28] = assay: Anti-migration activity against human RKO cells assessed as decrease in cell migration rate at 0.37 uM for 48 hrs by crystalline violet staining based assay; format: functional
HGC-27 [29] = assay: Antiproliferative activity against human HGC-27 cells assessed as clone formation at 0.37 to 3.3 uM incubated for 4 days by crystal violet staining based analysis; format: functional, cell-based; conditions: dose 0.37-3.3 µM, time 4.0 day
[30] = Toxicity in BALB/c mouse xenografted with mouse CT26.WT assessed as pathological changes in spleen at 100 mg/kg, ip twice daily and measured after 14 days by hematoxylin and eosin staining based microscopic analysis; format: organism-based; conditions: in vivo, 336 h, time 14 day
[31] = AUC (0 to t) in Sprague-Dawley rat at 100 mg/kg, ip and measured upto 8 hrs by LC-MS/MS analysis; format: ADME, organism-based; design: dose 100 mg/kg, time < 8 hrs, route ip; conditions: in vivo
CT26.WT [32] = assay: Anti-tumor activity against mouse CT26.WT xenografted in BALB/c mouse assessed as increase in cleaved caspase-3 expression level at 100 mg/kg, ip twice daily and measured after 14 days by immunohistochemical analysis; format: functional, organism-based; conditions: time 14.0 day
HGC-27 [33] = assay: Effect on cell morphology in human HGC-27 cells assessed as contracted nucleus at 10 uM incubated for 48 hrs by giemsa staining based microscopic analysis; format: functional
HGC-27 [34] = assay: Induction of cell cycle arrest in human HGC-27 cells assessed as accumulation at G2/M phase at 3.3 to 10 uM for 24 hrs by propidium iodide staining based flow cytometry; format: functional; conditions: dose 3.3-10 µM
RKO [35] = assay: Induction of apoptosis in human RKO cells assessed as increase in Bax/Bcl-2 ratio expression at 1.1 to 10 uM incubated for 24 hrs by western blot assay; format: functional, cell-based; conditions: dose 1.1-10 µM

Nuclear factor NF-kappa-B complex (Homo sapiens), sequence (P19838 whole entry, looked up): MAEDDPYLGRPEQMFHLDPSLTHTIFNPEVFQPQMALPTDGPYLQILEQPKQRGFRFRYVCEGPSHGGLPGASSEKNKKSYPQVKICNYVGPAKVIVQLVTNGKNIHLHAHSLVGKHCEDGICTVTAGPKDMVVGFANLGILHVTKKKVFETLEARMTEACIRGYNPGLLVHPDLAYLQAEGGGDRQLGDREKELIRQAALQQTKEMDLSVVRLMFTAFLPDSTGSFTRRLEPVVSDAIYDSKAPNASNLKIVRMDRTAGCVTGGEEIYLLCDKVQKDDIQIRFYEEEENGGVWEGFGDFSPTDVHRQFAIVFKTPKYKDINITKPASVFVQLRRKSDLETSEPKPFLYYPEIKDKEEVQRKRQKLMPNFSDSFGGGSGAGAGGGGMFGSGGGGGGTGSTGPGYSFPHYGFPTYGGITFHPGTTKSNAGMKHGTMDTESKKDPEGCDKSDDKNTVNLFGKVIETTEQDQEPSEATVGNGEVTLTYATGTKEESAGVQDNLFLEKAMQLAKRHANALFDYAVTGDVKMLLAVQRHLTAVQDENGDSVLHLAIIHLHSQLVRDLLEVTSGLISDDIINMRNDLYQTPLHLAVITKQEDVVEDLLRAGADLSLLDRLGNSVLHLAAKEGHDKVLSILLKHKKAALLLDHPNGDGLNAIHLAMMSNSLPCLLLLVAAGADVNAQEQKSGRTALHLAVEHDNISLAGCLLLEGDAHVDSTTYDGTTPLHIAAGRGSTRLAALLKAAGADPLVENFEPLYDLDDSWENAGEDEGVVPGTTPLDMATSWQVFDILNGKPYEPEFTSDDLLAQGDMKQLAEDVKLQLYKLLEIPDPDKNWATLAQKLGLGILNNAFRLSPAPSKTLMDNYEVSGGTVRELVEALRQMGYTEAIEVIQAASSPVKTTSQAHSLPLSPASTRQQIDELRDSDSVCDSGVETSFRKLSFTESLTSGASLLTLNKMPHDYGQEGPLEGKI
Nuclear factor NF-kappa-B complex (Homo sapiens), sequence (Q00653 whole entry, looked up): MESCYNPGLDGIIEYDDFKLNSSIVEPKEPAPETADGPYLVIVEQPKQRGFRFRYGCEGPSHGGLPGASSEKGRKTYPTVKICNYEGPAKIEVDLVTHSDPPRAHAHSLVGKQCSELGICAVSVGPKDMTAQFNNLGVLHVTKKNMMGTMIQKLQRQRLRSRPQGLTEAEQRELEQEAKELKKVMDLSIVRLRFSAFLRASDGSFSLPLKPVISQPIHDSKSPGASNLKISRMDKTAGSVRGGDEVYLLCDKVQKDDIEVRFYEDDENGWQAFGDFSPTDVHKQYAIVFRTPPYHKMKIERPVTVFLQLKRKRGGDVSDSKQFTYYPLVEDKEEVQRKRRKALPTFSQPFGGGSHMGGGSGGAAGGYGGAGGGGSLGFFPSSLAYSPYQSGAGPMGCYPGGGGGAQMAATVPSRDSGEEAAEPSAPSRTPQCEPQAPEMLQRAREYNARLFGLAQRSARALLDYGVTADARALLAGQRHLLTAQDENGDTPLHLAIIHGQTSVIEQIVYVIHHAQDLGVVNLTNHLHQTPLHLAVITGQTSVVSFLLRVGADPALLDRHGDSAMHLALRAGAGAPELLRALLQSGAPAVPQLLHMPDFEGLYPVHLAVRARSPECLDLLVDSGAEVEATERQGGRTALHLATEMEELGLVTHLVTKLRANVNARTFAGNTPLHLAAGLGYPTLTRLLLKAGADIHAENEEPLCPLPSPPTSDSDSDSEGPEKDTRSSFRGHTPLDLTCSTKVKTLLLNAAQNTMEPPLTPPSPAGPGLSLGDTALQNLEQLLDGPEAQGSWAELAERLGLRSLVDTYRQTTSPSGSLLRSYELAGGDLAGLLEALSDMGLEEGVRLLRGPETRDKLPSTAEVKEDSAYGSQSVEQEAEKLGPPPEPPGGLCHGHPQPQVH
Nuclear factor NF-kappa-B complex (Homo sapiens), sequence (Q04206 whole entry, looked up): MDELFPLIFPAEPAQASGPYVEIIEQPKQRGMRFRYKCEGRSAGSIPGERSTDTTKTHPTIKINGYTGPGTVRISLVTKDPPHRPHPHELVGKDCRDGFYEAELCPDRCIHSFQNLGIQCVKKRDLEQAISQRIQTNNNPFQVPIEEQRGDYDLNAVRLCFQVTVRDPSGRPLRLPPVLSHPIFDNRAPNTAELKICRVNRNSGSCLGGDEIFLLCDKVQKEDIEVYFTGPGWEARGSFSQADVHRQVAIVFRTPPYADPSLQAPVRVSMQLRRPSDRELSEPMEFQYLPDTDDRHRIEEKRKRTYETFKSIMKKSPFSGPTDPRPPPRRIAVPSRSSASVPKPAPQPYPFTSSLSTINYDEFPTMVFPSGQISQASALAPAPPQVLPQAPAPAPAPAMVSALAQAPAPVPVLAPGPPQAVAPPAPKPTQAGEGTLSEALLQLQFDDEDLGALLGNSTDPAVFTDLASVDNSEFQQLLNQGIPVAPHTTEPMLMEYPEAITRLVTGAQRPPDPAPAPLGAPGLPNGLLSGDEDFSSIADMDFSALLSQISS

With Cc1c(Cl)cccc1Nc1ccc(F)cc1C(=O)NCc1ccc(O)c(O)c1 the Activity (HGC-27 [1]) was “Active”, the half-life [2] was 1.56 h and the IC50 (HT-29) was 16.9 µM. For the same compound, the Activity [3] was “Non-Toxic”, the Activity (HGC-27 [4]) was 57.64% and the Activity (RKO [5]) was “Active”. For the same compound, the Activity (HGC-27 [6]) was “Active”, the Activity (HGC-27 [7]) was “Active” and the Activity (RKO [8]) was “Active”. The Activity (RAW264.7) was “Active”, the inhibition [9] was “Active” and the Activity (RKO [10]) was “Active”. The Activity (RKO [11]) was “Active”, the remaining at 4 h [12] was over 90% and the Activity (HGC-27 [13]) was “Active”. The Activity (RKO [14]) was “Active”, the Activity (HGC-27 [15]) was “Active” and the Activity (RKO [16]) was “Active”. The Activity (HGC-27 [17]) was 69.46%, the viability at 1.23 µM (CT26.WT [18]) was over 80% and the Activity [19] was “Non-Toxic”. For the same compound, the Activity [20] was “Non-Toxic”, the Activity [21] was “Non-Toxic” and the IC50 (RKO [22]) was 3.12 µM. For the same compound, the Activity (HGC-27 [23]) was “Active”, the Activity (RKO [24]) was “Active” and the Activity (CT26.WT [25]) was “Active”. The IC50 (HGC-27 [26]) was 4.71 µM, the Activity (RKO [27]) was 33.77% and the Activity (RKO [28]) was “Active”. For the same compound, the Activity (HGC-27 [29]) was “Active”, the Activity [30] was “Non-Toxic” and the AUC(0-t) at 8 h [31] was 18200 ng·h/mL. The Activity (CT26.WT [32]) was “Active”, the Activity (HGC-27 [33]) was “Active” and the Activity (HGC-27 [34]) was “Active”. For the same compound, the Activity (RKO [35]) was “Active”.

Source: ChEMBL document CHEMBL5137070, “N-2-(Phenylamino) Benzamide Derivatives as Dual Inhibitors of COX-2 and Topo I Deter Gastrointestinal Cancers via Targeting Inflammation and Tumor Progression” (J Med Chem, 2022)
